We go through 22 molecules from ChEMBL document CHEMBL1131475, “Discovery of ritonavir, a potent inhibitor of HIV protease with high oral bioavailability and clinical efficacy” (J Med Chem, 1998).

The nature of data set [1]: Oral bioavailability in rat. The class given is ADME, organism-based. Particulars: in vivo.
Data set [2] is described as follows: in vivo. Particulars: rat, plasma, po.
Data set [3] in a line: in vivo. Particulars: rat, plasma, po. This is another data set of the same source.
Data set [4] can be described thus: in vivo. Particulars: rat, plasma, iv.
A short description of data set [5]: in vivo. Particulars: rat, plasma, po, 10 mg/kg.

Structures are written as SMILES.

By bioavailability is commonly meant dose-corrected exposure relative to a reference, in per cent. A high value points to much systemic uptake. By AUC is commonly meant the area under the concentration-time curve, a measure of exposure. A word on the Tmax: it is the time at which the peak concentration occurs. By half-life is commonly meant the time in which the quantity being followed falls by half. As usually defined, the Cmax is the highest concentration seen after dosing. Regarding `COc1ccc(CN(C)C(=O)NC(C(=O)N[C@@H](Cc2ccccc2)C[C@H](O)[C@H](Cc2ccccc2)NC(=O)OCc2cccnc2)C(C)C)cn1` (stereo not given in full), in data set [1], the bioavailability was found to be 10%. Also, in the data set “in vivo [2]”, the area under the curve (AUC) is 0.32 µg·h/mL. Moreover, in the data set “in vivo [3]”, the Tmax worked out at 6 min. In the data set “in vivo [4]”, this molecule showed a half-life of 13.2 min. The molecule further showed a maximum concentration (Cmax) in the data set “in vivo [5]” of 1.75 µM.

The molecule `COc1ccc(CN(C)C(=O)NC(C(=O)N[C@@H](Cc2ccccc2)C[C@H](O)[C@H](Cc2ccccc2)NC(=O)OCc2cccnc2)C(C)C)nc1` (stereo not given in full) showed a bioavailability in data set [1] of 5.7%. For the same molecule, the area under the curve (AUC) in “in vivo [2]” was determined as 0.29 µg·h/mL. Also, the Tmax in the data set “in vivo [3]” stood at 6 min. The half-life in “in vivo [4]” is 34.2 min. In “in vivo [5]”, this molecule gave a maximum concentration (Cmax) of 1.05 µM.

`COc1cncc(CN(C)C(=O)NC(C(=O)N[C@@H](Cc2ccccc2)C[C@H](O)[C@H](Cc2ccccc2)NC(=O)OCc2cccnc2)C(C)C)c1` (stereo not given in full) gave a bioavailability in data set [1] of 0.4%. This molecule yielded an exposure (AUC) in “in vivo [2]” of 0.05 µg·h/mL. Moreover, the time to peak (Tmax) in the data set “in vivo [3]” stood at 9 min. In addition, the half-life in “in vivo [4]” was 16.8 min. This molecule gave a peak concentration (Cmax) in the data set “in vivo [5]” of 0.18 µM.

With `CC(C)C(NC(=O)N(C)Cc1ccccn1)C(=O)N[C@@H](Cc1ccccc1)[C@@H](O)C[C@H](Cc1ccccc1)NC(=O)OCc1ccoc1` (stereo not given in full), the bioavailability in data set [1] was determined as 9.3%. The area under the curve (AUC) in “in vivo [2]” stood at 0.5 µg·h/mL. Further, the Tmax in the data set “in vivo [3]” was 24 min. In addition, the half-life in “in vivo [4]” was 64.2 min. For the same molecule, the concentration in the data set “in vivo [5]” peaked (Cmax) at 1.02 µM.

With `Cc1cnc(COC(=O)NC(C(=O)N[C@@H](Cc2ccccc2)C[C@H](O)[C@H](Cc2ccccc2)NC(=O)OCc2cccnc2)C(C)C)cn1` (stereo not given in full), the bioavailability in data set [1] was found to be 6%. In the data set “in vivo [2]”, the exposure (AUC) was 0.19 µg·h/mL. For the same molecule, the time to peak (Tmax) in “in vivo [3]” came out at 18 min. This molecule also gave a half-life in “in vivo [4]” of 12.6 min. The molecule further came in with a Cmax in the data set “in vivo [5]” of 0.86 µM.

In the case of `Cc1cccc(CN(C)C(=O)NC(C(=O)N[C@@H](Cc2ccccc2)C[C@H](O)[C@H](Cc2ccccc2)NC(=O)OCc2cccnc2)C(C)C)n1` (stereo not given in full), the bioavailability in data set [1] amounted to 32%. In addition, the exposure (AUC) in the data set “in vivo [2]” is 1.66 µg·h/mL. The time to peak (Tmax) in “in vivo [3]” came to 17.4 min. This molecule also gave a half-life in “in vivo [4]” of 40.8 min. In the data set “in vivo [5]”, the peak concentration (Cmax) came out at 3.39 µM.

Molecule `CC(C)C(NC(=O)OCc1nccs1)C(=O)N[C@@H](Cc1ccccc1)C[C@H](O)[C@H](Cc1ccccc1)NC(=O)OCc1cccnc1` (stereo not given in full) yielded a bioavailability in data set [1] of 8.5%. The molecule further had an AUC in the data set “in vivo [2]” of 0.57 µg·h/mL. For the same molecule, the Tmax in the data set “in vivo [3]” amounted to 9 min. Further, the half-life in “in vivo [4]” was 39.6 min. Also, in “in vivo [5]”, the Cmax was determined as 2.53 µM.

Take `CCc1cccc(COC(=O)NC(C(=O)N[C@@H](Cc2ccccc2)[C@@H](O)C[C@H](Cc2ccccc2)NC(=O)OCc2cccnc2)C(C)C)n1` (stereo not given in full): the bioavailability in data set [1] was found to be 16%. This molecule also had an AUC in “in vivo [2]” of 0.81 µg·h/mL. In addition, the Tmax in the data set “in vivo [3]” is 15 min. This molecule also gave a half-life in the data set “in vivo [4]” of 44.4 min. Besides, in the data set “in vivo [5]”, the highest concentration (Cmax) stood at 1.26 µM.

On to `CC(C)C(NC(=O)OCc1ccccn1)C(=O)N[C@@H](Cc1ccccc1)C[C@H](O)[C@H](Cc1ccccc1)NC(=O)OCc1cncs1` (stereo not given in full), for which the bioavailability in data set [1] was found to be 47%. Besides, the area under the curve (AUC) in the data set “in vivo [2]” is 4.24 µg·h/mL. In addition, in “in vivo [3]”, the time to peak (Tmax) is 22.2 min. The molecule also showed a half-life in “in vivo [4]” of 73.8 min. The same molecule showed a Cmax in “in vivo [5]” of 2.04 µM.

`Cc1ncc(COC(=O)N[C@@H](Cc2ccccc2)C[C@H](O)[C@H](Cc2ccccc2)NC(=O)C(NC(=O)N(C)Cc2csc(C(C)C)n2)C(C)C)s1` (stereo not given in full) came in with a bioavailability in data set [1] of 28%. Also, in the data set “in vivo [2]”, the AUC is 2.37 µg·h/mL. In addition, in “in vivo [3]”, the time to peak (Tmax) was 42 min. The molecule also showed a half-life in the data set “in vivo [4]” of 27.6 min. Further, the Cmax in “in vivo [5]” worked out at 2.08 µM.

In data set [1], `CC(C)C(NC(=O)N(C)Cc1csc(C2CC2)n1)C(=O)N[C@@H](Cc1ccccc1)C[C@H](O)[C@H](Cc1ccccc1)NC(=O)OCc1cncs1` (stereo not given in full) came in with a bioavailability of 58%. In the data set “in vivo [2]”, this molecule registered an AUC of 21.9 µg·h/mL. In addition, in “in vivo [3]”, the Tmax is 130 min. The half-life in the data set “in vivo [4]” is 66 min. This molecule also displayed a peak concentration (Cmax) in the data set “in vivo [5]” of 6.46 µM.

As for `CC(C)c1ncc(COC(=O)NC(C(=O)N[C@@H](Cc2ccccc2)C[C@H](O)[C@H](Cc2ccccc2)NC(=O)OCc2cccnc2)C(C)C)s1` (stereo not given in full), the bioavailability in data set [1] came out at 0.7%. Besides, the AUC in the data set “in vivo [2]” turned out to be 0.02 µg·h/mL. In “in vivo [3]”, the Tmax was found to be 6 min. Besides, the half-life in “in vivo [4]” is 27.6 min. In addition, the maximum concentration (Cmax) in “in vivo [5]” is 0.15 µM.

As to `COc1cncc(COC(=O)NC(C(=O)N[C@@H](Cc2ccccc2)[C@@H](O)C[C@H](Cc2ccccc2)NC(=O)OCc2cccnc2)C(C)C)c1` (stereo not given in full), in data set [1], the bioavailability stood at 1.5%. The AUC in the data set “in vivo [2]” is 0.07 µg·h/mL. The time to peak (Tmax) in “in vivo [3]” turned out to be 6 min. The same molecule gave a half-life in the data set “in vivo [4]” of 71.4 min. The same molecule returned a maximum concentration (Cmax) in the data set “in vivo [5]” of 0.3 µM.

`CC(C)C(NC(=O)N(C)Cc1ccccn1)C(=O)N[C@@H](Cc1ccccc1)C[C@H](O)[C@H](Cc1ccccc1)NC(=O)OCc1cccnc1` (stereo not given in full): the bioavailability in data set [1] was found to be 22%. This molecule also yielded an exposure (AUC) in “in vivo [2]” of 1.22 µg·h/mL. Further, the Tmax in the data set “in vivo [3]” was 9 min. For the same molecule, in the data set “in vivo [4]”, the half-life is 73.2 min. The same molecule displayed a Cmax in the data set “in vivo [5]” of 2.18 µM.

As for `CC(C)C(NC(=O)N(C)Cc1cscn1)C(=O)N[C@@H](Cc1ccccc1)C[C@H](O)[C@H](Cc1ccccc1)NC(=O)OCc1cccnc1` (stereo not given in full), the bioavailability in data set [1] was found to be 5.2%. In the data set “in vivo [2]”, the AUC was 0.29 µg·h/mL. Also, the time of peak concentration (Tmax) in “in vivo [3]” was 6 min. Moreover, the half-life in “in vivo [4]” is 40.2 min. This molecule showed a Cmax in “in vivo [5]” of 0.64 µM.

Turning to `CCc1ncc(COC(=O)NC(C(=O)N[C@@H](Cc2ccccc2)C[C@H](O)[C@H](Cc2ccccc2)NC(=O)OCc2cccnc2)C(C)C)s1` (stereo not given in full), the bioavailability in data set [1] was found to be 0.5%. This molecule showed an AUC in “in vivo [2]” of 0.01 µg·h/mL. Moreover, in the data set “in vivo [3]”, the Tmax was 6 min. The molecule further gave a half-life in the data set “in vivo [4]” of 11.4 min. In addition, the peak concentration (Cmax) in the data set “in vivo [5]” stood at 0.16 µM.

`CC(C)C(NC(=O)OCc1cncc(N)c1)C(=O)N[C@@H](Cc1ccccc1)C[C@H](O)[C@H](Cc1ccccc1)NC(=O)OCc1cccnc1` (stereo not given in full): the bioavailability in data set [1] was determined as 0.3%. Besides, in “in vivo [2]”, the exposure (AUC) stood at 0.03 µg·h/mL. The Tmax in “in vivo [3]” was 6 min. For the same molecule, the half-life in “in vivo [4]” was 30 min. In “in vivo [5]”, this molecule came in with a Cmax of 0.14 µM.

In turn, `CC(C)c1nc(CN(C)C(=O)NC(C(=O)N[C@@H](Cc2ccccc2)[C@@H](O)C[C@H](Cc2ccccc2)NC(=O)OCc2cncs2)C(C)C)cs1` (stereo not given in full) showed a bioavailability in data set [1] of 16%. The AUC in “in vivo [2]” was 1.7 µg·h/mL. The time to peak (Tmax) in the data set “in vivo [3]” is 105 min. For the same molecule, the half-life in the data set “in vivo [4]” is 120 min. For the same molecule, the highest concentration (Cmax) in the data set “in vivo [5]” worked out at 2.29 µM.

The molecule `CCc1nc(CN(C)C(=O)NC(C(=O)N[C@@H](Cc2ccccc2)C[C@H](O)[C@H](Cc2ccccc2)NC(=O)OCc2cccnc2)C(C)C)cs1` (stereo not given in full) had a bioavailability in data set [1] of 17%. Further, the area under the curve (AUC) in the data set “in vivo [2]” was 1.05 µg·h/mL. Moreover, in the data set “in vivo [3]”, the time of peak concentration (Tmax) stood at 15 min. The half-life in the data set “in vivo [4]” was 72 min. Also, in “in vivo [5]”, the concentration peaked (Cmax) at 1.49 µM.

`Cc1ncc(COC(=O)NC(C(=O)N[C@@H](Cc2ccccc2)[C@@H](O)C[C@H](Cc2ccccc2)NC(=O)OCc2cccnc2)C(C)C)nc1C` (stereo not given in full) had a bioavailability in data set [1] of 5.7%. This molecule also displayed an exposure (AUC) in the data set “in vivo [2]” of 0.12 µg·h/mL. Further, the Tmax in “in vivo [3]” came to 12 min. In addition, the half-life in “in vivo [4]” was 18 min. This molecule also came in with a Cmax in the data set “in vivo [5]” of 0.35 µM.

For `COCc1nc(CN(C)C(=O)NC(C(=O)N[C@@H](Cc2ccccc2)[C@@H](O)C[C@H](Cc2ccccc2)NC(=O)OCc2cccnc2)C(C)C)cs1` (stereo not given in full), the bioavailability in data set [1] worked out at 16%. The same molecule yielded an AUC in the data set “in vivo [2]” of 1.24 µg·h/mL. In addition, the Tmax in the data set “in vivo [3]” was 30 min. The molecule further showed a half-life in the data set “in vivo [4]” of 33.6 min. This molecule showed a Cmax in “in vivo [5]” of 2.29 µM.

Molecule `Cc1ncc(CN(C)C(=O)NC(C(=O)N[C@@H](Cc2ccccc2)C[C@H](O)[C@H](Cc2ccccc2)NC(=O)OCc2cccnc2)C(C)C)nc1C` (stereo not given in full) showed a bioavailability in data set [1] of 6.4%. This molecule showed an AUC in the data set “in vivo [2]” of 0.33 µg·h/mL. Further, the Tmax in the data set “in vivo [3]” came out at 15 min. The same molecule had a half-life in “in vivo [4]” of 18 min. In the data set “in vivo [5]”, this molecule displayed a maximum concentration (Cmax) of 1.13 µM.
